Laboratory results taken from ChEMBL document CHEMBL2396547, “Anticancer effects of a novel class rosin-derivatives with different mechanisms” (Bioorg Med Chem Lett, 2013).
Activity calls are given as the source filed them. The rule behind the calls is not given here.

How the values were obtained:
EJ [1] = assay: Induction of apoptosis in human EJ cells assessed as necrotic cells at 5 uM after 24 hrs by annexin V-FITC/propidium iodide staining-based flow cytometric analysis (reference value: 0.28 to 0.30%); type: functional
EJ [2] = assay: Induction of necrosis in human EJ cells assessed as disruption of membrane integrity measuring loss of microvilli at 15 uM after 1 hr by scanning electron microscopic analysis; type: functional, cell-based
EJ [3] = assay: Induction of apoptosis in human EJ cells assessed as late apoptotic cells at 5 uM after 24 hrs by annexin V-FITC/propidium iodide staining-based flow cytometric analysis (reference value: 0.08 to 0.22%); type: functional
Jurkat = assay: Cytotoxicity against human Jurkat cells assessed as growth inhibition after 72 hrs by MTT assay; type: functional, cell-based
EJ [4] = assay: Cytotoxicity against human EJ cells assessed as growth inhibition after 72 hrs by MTT assay; type: functional, cell-based
EJ [5] = assay: Induction of apoptosis in human EJ cells assessed as decrease in procaspase-9 level at 5 uM after 24 hrs by Western blot analysis; type: functional, cell-based
EJ [6] = assay: Induction of apoptosis in human EJ cells assessed as cristae swelling at 5 uM after 24 hrs by transmission electron microscopic analysis; type: functional, cell-based
EJ [7] = assay: Induction of apoptosis in human EJ cells assessed as caspase-8 activation at 5 uM after 24 hrs by Western blot analysis; type: functional, cell-based
EJ [8] = assay: Induction of necrosis in human EJ cells assessed as disruption of membrane integrity at 15 uM after 1 hr by propidium iodide uptake assay; type: functional, cell-based
EJ [9] = assay: Induction of apoptosis in human EJ cells assessed as disruption of mitochondria with frequent fusion between great number of vaculoes at 5 uM after 24 hrs by transmission electron microscopic analysis; type: functional, cell-based
EJ [10] = assay: Induction of apoptosis in human EJ cells assessed as decrease in procaspase-3 level at 5 uM after 24 hrs by Western blot analysis; type: functional, cell-based
EJ [11] = assay: Induction of apoptosis in human EJ cells assessed as mitochondrial matrix condensation at 5 uM after 24 hrs by transmission electron microscopic analysis; type: functional, cell-based
EJ [12] = assay: Induction of apoptosis in human EJ cells assessed as formation of apoptotic bodies at 5 uM after 24 hrs by Hoechst 33342 staining-based confocal microscopic analysis; type: functional, cell-based
EJ [13] = assay: Cytotoxicity against human EJ cells assessed as cell death up to 20 uM measured within 1 hr by MTT assay; type: functional, cell-based
EJ [14] = assay: Induction of apoptosis in human EJ cells assessed as nuclear fragmentation at 5 uM after 24 hrs by transmission electron microscopic analysis; type: functional, cell-based
EJ [15] = assay: Cytotoxicity against human EJ cells assessed as cell death at 5 to 20 uM after 24 hrs by MTT assay; type: functional, cell-based
EJ [16] = assay: Induction of apoptosis in human EJ cells assessed as nuclear condensation at 5 uM after 24 hrs by Hoechst 33342 staining-based confocal microscopic analysis; type: functional, cell-based
[17] = Hemolytic activity in mouse RBC at 100 uM after 1 hr by ELISA relative to control; type: ADME, cell-based, Erythrocyte; conditions: for Activity: erythrocyte, 1 h, 100 µM
EJ [18] = assay: Induction of apoptosis in human EJ cells assessed as early apoptotic cells at 5 uM after 24 hrs by annexin V-FITC/propidium iodide staining-based flow cytometric analysis (reference value: 0.01 to 0.04%); type: functional
EJ [19] = assay: Induction of apoptosis in human EJ cells assessed as peripheral nuclear chromatin condensation at 5 uM after 24 hrs by transmission electron microscopic analysis; type: functional, cell-based
HeLa = assay: Cytotoxicity against human HeLa cells assessed as growth inhibition after 72 hrs by MTT assay; type: functional, cell-based
EJ [20] = assay: Induction of necrosis in human EJ cells assessed as disruption of membrane integrity measuring pore formation at 15 uM after 1 hr by scanning electron microscopic analysis; type: functional, cell-based
5637 = assay: Cytotoxicity against human 5637 cells assessed as growth inhibition after 72 hrs by MTT assay; type: functional, cell-based; conditions: Homo sapiens, 5637, 72 h
PC-3 = assay: Cytotoxicity against human PC3 cells assessed as growth inhibition after 72 hrs by MTT assay; type: functional, cell-based; conditions: PC-3, 72 h
EJ [21] = assay: Induction of apoptosis in human EJ cells assessed as viable cells at 5 uM after 24 hrs by annexin V-FITC/propidium iodide staining-based flow cytometric analysis (reference value: 99.6%); type: functional; conditions: read-out: Activity
EJ [22] = assay: Induction of apoptosis in human EJ cells assessed as increase in cytosolic cytochrome c level at 5 uM after 24 hrs by Western blot analysis; type: functional, cell-based
EJ [23] = assay: Cytotoxicity against human EJ cells assessed as cell death at 10 to 20 uM after 1 hr by MTT assay; type: functional, cell-based

Row | Structure (SMILES) | Activity (EJ [1]) [%] | Activity (EJ [3]) [%] | IC50 (Jurkat) [µM] | IC50 (EJ [4]) [µM] | Activity (EJ [5]) | Activity (EJ [7]) | Activity (EJ [8]) | Activity (EJ [10]) | Activity (EJ [12]) | Activity (EJ [16]) | Activity [17] | Activity (EJ [18]) [%] | IC50 (HeLa) [µM] | IC50 5637 [µM] | IC50 (PC-3) [µM] | viability at 5 µM (EJ [21]) [%] | Activity (EJ [22]) | also measured
1 | C=CC1CN2CCC1CC2[C@H](NC(=S)NC[C@]1(C)CCC[C@]2(C)c3ccc(C(C)C)cc3CC[C@@H]12)c1ccnc2ccc(OC)cc12 (stereo partly drawn) | 0.12 | 4.01 | 2.2 | 2.07 | Active | inactive | inactive | inactive | Active | Active | Non-toxic | 89 | 3.21 | 2.64 | 2.98 | 6.83 | Active | Activity (EJ [2]): inactive; Activity (EJ [6]): Active; Activity (EJ [9]): Active; Activity (EJ [11]): Active; Activity (EJ [13]): inactive; Activity (EJ [14]): Active; Activity (EJ [15]): Active; Activity (EJ [19]): Active; Activity (EJ [20]): inactive
2 | CC(C)c1ccc2c(c1)CC[C@H]1[C@](C)(CN)CCC[C@]21C | 0.13 | 5.85 | 4.85 | 4.82 | Active | inactive | Active | inactive | Active | Active |  | 87.9 | 7.68 | 8.7 | 7.88 | 6.16 | Active | Activity (EJ [23]): Active; hemolysis at 1 h, 100 µM ([17]; mouse red blood cells, read-out: Activity): 17.9%
3 | CC(C)c1ccc2c(c1)CC[C@H]1[C@](C)(CNC(=S)N[C@H]3CCCC[C@@H]3N3CCCC3)CCC[C@]21C | 0 | 4.53 | 4.5 | 4.29 | Active |  | Active |  | Active | Active |  | 95.1 | 5.76 | 5.18 | 6.57 | 0.35 | Active | 
4 | CC(C)c1ccc2c(c1)CC[C@H]1[C@](C)(CNC(=S)N[C@H]3CCCC[C@@H]3N(C)C)CCC[C@]21C | 0 | 7.45 | 4.32 | 4.19 | Active |  | Active |  | Active | Active |  | 92.2 | 5.12 | 4.62 | 5.53 | 0.32 | Active | 
5 | C=C[C@H]1C[N@@]2CC[C@H]1C[C@H]2[C@H](O)c1ccnc2ccc(OC)cc12 [QUININE] |  |  |  |  |  |  |  |  |  |  | Non-toxic |  |  |  |  |  |  | 
